# From patent publication US20220154189A1, “COMPOSITIONS AND METHODS FOR THE TREATMENT OF KRAS ASSOCIATED DISEASES OR DISORDERS” (Dicerna Pharmaceuticals, Inc., priority 2019, published 2022)
# Columns and labels:
# [1] = tested on: KRAS mRNA; test: KRAS mRNA expression in mouse tumor models using MIA PaCa2 and LS411N tumor cells; type: in vivo, human; details: MIA PaCa 2 and LS411N tumor models, LNP-formulated tetraloops, 3 mg/kg daily for three days, 24 hours after
# Experimental: FIG. 3B is a column scatter plot showing KRAS mRNA expression levels in a mouse tumor model using MIA PaCa2 tumor cells 24 hours after three-day daily administration of 3 mg/kg of KRAS nucleic acid inhibitor molecules as described in Example 1 and shown in FIG. 3A.
# FIG. 3C is a column scatter plot showing KRAS mRNA expression levels in a mouse tumor model using MIA LS411N tumor cells 24 hours after three-day daily administration of 3 mg/kg of KRAS nucleic acid inhibitor molecules as described in Example 1 and shown in FIG. 3A.
# The tetraloop sequences were tested in tumor models using MIA PaCa 2 and colon cancer LS411N cell lines. The best two from this screen (KRAS-465T and KRAS-446T) were then further modified to have a 4′-oxymethylphosphonate modification on the nucleotide at the 5′-end of the antisense strand (KRAS-465T/MOP and KRAS-446T/MOP). The sense strand of KRAS-465T/MOP contains SEQ ID NO: 13 (5′-[…]-3′), and the antisense strand of KRAS-465T/MOP contains SEQ ID NO: 14 (3′-[…]-5′, wherein underlining indicates a 4′-oxymethylphosphonate modification). The sense strand of KRAS-446T/MOP contains SEQ ID NO: 15 (5′-[…]-3′), and the antisense strand of KRAS-446T/MOP contains SEQ ID NO: 16 (3′-[…]-5′, wherein underlining indicates a 4′-oxymethylphosphonate modification).
# [2] = tested on: Pan02 tumors; test: tumor growth inhibition, Pan02 tumors in C57BL/6 mice; type: in vivo, mouse
# Experimental: (§1) 6 to 8 week old immunocompetent or immunocompromised mice (C57BL/6/Nude) were injected subcutaneously with 2×10^6 Pan02 (mouse pancreatic cell line) or 5×10^6 Panc1 (human pancreatic cell line) tumor cells under the right shoulder. Tumor volume was measured every 2-3 days a week to monitor tumor growth. Dosing was initiated when the tumors reached about 200 mm^3. For tumor growth inhibition studies, animals were randomized and assigned to different cohorts and subjected to dosing cycles. KRAS1-formulated LNP (“KRAS/LNP”) or Placebo (scrambled KRAS dsRNAi) formulated LNP was given intravenously via lateral tail vein at a total volume of 10 ml/kg. Immuno-modulatory agents (CSF1 antibody, TGF-β inhibitor, or checkpoint inhibitors) were given intraperitoneally or orally at a volume of 10 ml/kg. Trametinib (MEK inhibitor) was given orally at a total volume of 10 ml/kg.
# (§2) Mouse pancreatic cell line Pan02 was obtained from NCI, and human pancreatic cell line Panc1 cells were obtained from ATCC (Manassas, Va.) and grown in RPMI/DMEM medium supplemented with 10% FBS. Pan02 is a murine PDAC cell line with KRAS G12D mutation. Panc1 is a human PDAC cell line with KRAS G1D mutation.
# To see if the KRAS knockdown observed could be translated into growth inhibition, Pan02 tumors were implanted as described above, and when they reached the right sizes (e.g., about 200 mm^3), they were sorted and treated with KRAS/LNP or Placebo/LNP (cKras) at 10 mpk once a week for 3 weeks, and the tumor growth was monitored.
# [3] = tested on: KRAS mRNA; test: in vitro screen of KRAS DsiRNA constructs, KRAS mRNA expression in MIA PaCa2 cells; type: cell-based, human; details: lipofectamine, 1 nM and 0.1 nM, 24 hours
# Source text: A nucleic acid inhibitor molecule that targets the KRAS gene (KRAS1) was constructed. First, several 25/27-mer KRAS DsiRNAs (with no modifications except for three methyls on the 3′ end of the guide strand) were selected. These constructs were then converted into a nicked-tetraloop format, using the U/GG convention as 22-mers, such that bases came off the guide strand starting from the 5′ end. These DsiRNAs were screened in human pancreatic carcinoma (MIA PaCa2) cells in vitro using lipofectamine at 1 nM and 0.1 nM concentrations of each construct to determine the potency.
# [4] = tested on: KRAS; test: mRNA analysis of KRAS in trametinib-resistant Panc1 tumors; type: in vivo, human; details: trametinib-resistant Panc1 tumors after KRAS/LNP 5 mpk (qdx3), compared to resistant tumors without KRAS/LNP
# Experimental: (§3) To see how trametinib performed in human PDAC, Panc1 tumors were implanted as described above and treated with trametinib (3 mg/kg/dose) as shown in FIG. 12A. Tumor measurements were taken throughout the entire study period to monitor the tumor growth. […] Tumors were collected before and after KRAS/LNP treatments for mRNA analysis.
# [5] = tested on: Pan02 tumors; test: qPCR of tumor microenvironment and stromal activation marker mRNAs in Pan02 tumors; type: in vivo, mouse
# Experimental: To see if a single KRAS/LNP treatment would lead to modulation of the tumor microenvironment, samples from the study described in Example 3 (FIGS. 5A-B) were analyzed for certain T-cell markers (CD8 and FoxP3) and chemokines (CXCL1). FoxP3 is a marker for immunosuppressive T cells (Tregs), which play an important role in regulating or suppressing other cells of the immune system. CXCL1 is a chemokine that actively recruits suppressive molecules such as Tregs and myeloid-derived suppressor cells to the tumor microenvironment.
# To see if continuous KRAS inhibition would lead to modulation of the tumor microenvironment, Pan02 tumors from the efficacy study described in Example 3 (FIG. 6) were collected 24 hours after the last dose and subjected to qPCR to measure mRNAs of immune cell markers (CD8, FoxP3), immune suppressive cytokines (CXCL1, CXCL5, and IL10), immune checkpoints (PD-L1) or stromal activation markers (TGF-0, Axin2, ROBO1, and CSF3). […] This in turn led to down-regulation of several key suppressive molecules (FoxP3, CXCL1, and CXCL5). […]
# A similar study was repeated in Pan02 tumors as well. […] In this case, tumors were collected and analyzed for the mRNA markers that contribute to modulation of the tumor microenvironment and stromal activation.
# [6] = tested on: Pan02 tumors; test: FoxP3 and CD8 immunohistochemistry of Pan02 tumors; type: in vivo, mouse; details: KRAS DsiRNA combined with an MEK inhibitor
# [7] = tested on: Cd274 (PD-L1) mRNA; test: mRNA analysis of Cd274 (PD-L1) in Panc1 tumors; type: in vivo, human; details: MEKi+KRAS DsiRNA treatment
# Experimental: as §3
# [8] = tested on: Panc1 tumors; test: tumor growth inhibition, human PDAC Panc1 tumors in nude mice; type: in vivo; details: gemcitabine 50 mpk, several rounds
# Experimental: as §1
# as §2, with “[…] mutation. […]” for “G1D mutation.”
# [9] = Pan02 tumors, continuous KRAS inhibition (10 mpk weekly x3), 24 hours after last dose
# [10] = Pan02 tumors, single KRAS/LNP treatment 10 mg/kg, 24 hours after last dose
# [11] = Pan02 tumors, gemcitabine treatment without KRAS/LNP
compound,measurement,setting,value
"KRAS-446T: KRAS tetraloop construct; sense strand SEQ ID NO: 15, antisense strand SEQ ID NO: 19 (sense GUAUUUGCCAUAAAUAAUAAGCAGCCGAAAGGCUGC; antisense UUAUUAUUUAUGGCAAAUACGG; sense strand forms tetraloop hairpin, modification pattern not given here)","KRAS mRNA expression, ranking in the tumor model screen",[1],best two
Cc1cccc(-c2nn3c(c2-c2ccnc4ccc(C(N)=O)cc24)CCC3)n1 [galunisertib],tumor growth inhibition,"[2]; orally 75 mpk (BID×2/cycle) for 2 weeks, vs Vehicle",about 50%
"KRAS-446: 25/27-mer KRAS DsiRNA; sense strand SEQ ID NO: 5, antisense strand SEQ ID NO: 6 (sense GUAUUUGCCAUAAAUAAUACUAAAT; antisense AUUUAGUAUUAUUUAUGGCAAAUACAC; Dicer-substrate siRNA, chemical modification pattern not given here)","KRAS mRNA expression, ranking of potency in the in vitro screen",[3],best three
"KRAS-465: 25/27-mer KRAS DsiRNA; sense strand SEQ ID NO: 3, antisense strand SEQ ID NO: 4 (sense CUAAAUCAUUUGAAGAUAUUCACCA; antisense UGGUGAAUAUCUUCAAAUGAUUUAGUA; Dicer-substrate siRNA, chemical modification pattern not given here)","KRAS mRNA expression, ranking of potency in the in vitro screen",[3],best three
"KRAS1: tetraloop construct with 4′-oxymethylphosphonate at nucleotide 1 of the antisense strand; sense SEQ ID NO: 13, antisense SEQ ID NO: 14 (sense CUAAAUCAUUUGAAGAUAUAGCAGCCGAAAGGCUGC; antisense NAUAUCUUCAAAUGAUUUAGGG; tetraloop DsiRNA, 4'-oxymethylphosphonate on antisense 5'-terminal U, other modifications not given here)",KRAS knockdown,[4],40-50%
same,Axin2 mRNA (stromal activation marker),[5]; [9],slightly increased
same,CSF3 mRNA (stromal activation marker),[5]; [9],slightly increased
same,CXCL1 mRNA,[5]; [9],down-regulation
same,CXCL5 mRNA,[5]; [9],down-regulation
same,Cd8 mRNA,[5]; [9],increased
same,Cd274 (PD-L1) mRNA,[5]; [9],increased
same,FoxP3 mRNA,[5]; [9],down-regulation
same,ROBO1 mRNA (stromal activation marker),[5]; [9],slightly increased
same,TGF-0 mRNA (stromal activation marker),[5]; [9],slightly increased
same,CD8 mRNA expression level,[5]; [10],unchanged
same,CXCL1 mRNA expression level,[5]; [10],significantly decreased
same,FoxP3 mRNA expression level,[5]; [10],significantly decreased
same,CXCL1 mRNA levels,"[5]; gemcitabine-resistant Pan02 tumors, single KRAS1 treatment",not brought down to baseline
same,CD8 expression by immunohistochemistry,[6],increased
same,FoxP3 expression by immunohistochemistry,[6],reduced
same,tumor growth,"[2]; 10 mpk once a week for 3 weeks, i.v., vs Placebo/LNP",complete growth inhibition
same,Cd274 (PD-L1) mRNA levels,[7],increased
"KRAS-194: 25/27-mer KRAS DsiRNA; sense strand SEQ ID NO: 1, antisense strand SEQ ID NO: 2 (sense GGCCUGCUGAAAAUGACUGAAUATA; antisense UAUAUUCAGUCAUUUUCAGCAGGCCUC; Dicer-substrate siRNA, chemical modification pattern not given here)","KRAS mRNA expression, ranking of potency in the in vitro screen",[3],best three
"KRAS-465T: KRAS tetraloop construct; sense strand SEQ ID NO: 13, antisense strand SEQ ID NO: 18 (sense CUAAAUCAUUUGAAGAUAUAGCAGCCGAAAGGCUGC; antisense UAUAUCUUCAAAUGAUUUAGGG; sense strand forms tetraloop hairpin, modification pattern not given here)","KRAS mRNA expression, ranking in the tumor model screen",[1],best two
"Nc1ccn([C@@H]2O[C@H](CO)[C@@H](O)C2(F)F)c(=O)n1 [gemcitabine, reference compound]","tumor growth, response to treatment",[8],"responded nicely at the beginning, they became resistant after several rounds of treatment"
same,CXCL1 mRNA levels,[5]; Pan02 tumors treated with gemcitabine until resistant,increased
same,Axin2 mRNA (stromal activation marker),[5]; [11],lower
same,ROBO1 mRNA (stromal activation marker),[5]; [11],lower
same,TGF-β mRNA (stromal activation marker),[5]; [11],lower
same,"tumor growth, response to treatment",[2]; continuous gemcitabine treatment,became resistant
